Target: T1, human dihydrofolate reductase (hDHFR) (Homo sapiens, UniProt P00374)
T1 sequence (P00374 1-187): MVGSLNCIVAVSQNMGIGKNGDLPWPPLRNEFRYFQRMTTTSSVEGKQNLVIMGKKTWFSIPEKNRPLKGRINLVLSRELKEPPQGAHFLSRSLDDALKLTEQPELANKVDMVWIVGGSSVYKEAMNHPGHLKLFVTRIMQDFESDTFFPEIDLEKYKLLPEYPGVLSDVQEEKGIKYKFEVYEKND
Assay: hDHFR inhibition assay
Format: biochemical

IC50: 0.28 µM
SMILES: CN(C)c1ccc(C=NNC(=O)CSc2nc3sc4c(c3c(=O)n2-c2ccccc2)CCCCC4)cc1 [compound 23, N′-[4-(Dimethylamino)benzylidene]-2-[(4-oxo-3-phenyl-6,7,8,9-tetrahydro-3H-cyclohepta[4,5]thieno[2,3-d]pyrimidin-2-yl)thio]acetohydrazide]

— publication PMC9753513 (ACS Omega, 2022)
